pIC50: −log10 of the molar value.
Assays:
[1] = target: T1, A disintegrin and metalloproteinase with thrombospondin motifs 5 (Bos taurus) (UniProt Q9TT92); assay: Ex vivo inhibition of ADAMTS-5-mediated aggrecan degradation in IL-1-stimulated bovine cartilage explant at 30 uM
T1 sequence (whole entry): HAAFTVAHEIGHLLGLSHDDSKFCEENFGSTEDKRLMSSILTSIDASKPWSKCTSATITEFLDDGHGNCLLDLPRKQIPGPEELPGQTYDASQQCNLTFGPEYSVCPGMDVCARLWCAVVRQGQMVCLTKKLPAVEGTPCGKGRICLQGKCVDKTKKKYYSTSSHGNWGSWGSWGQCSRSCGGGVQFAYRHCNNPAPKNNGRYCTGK

[2] = target: T2, A disintegrin and metalloproteinase with thrombospondin motifs 4 (Homo sapiens, UniProt O75173); assay: Inhibition of ADAMTS-4 (unknown origin)
T2 sequence (O75173 whole entry): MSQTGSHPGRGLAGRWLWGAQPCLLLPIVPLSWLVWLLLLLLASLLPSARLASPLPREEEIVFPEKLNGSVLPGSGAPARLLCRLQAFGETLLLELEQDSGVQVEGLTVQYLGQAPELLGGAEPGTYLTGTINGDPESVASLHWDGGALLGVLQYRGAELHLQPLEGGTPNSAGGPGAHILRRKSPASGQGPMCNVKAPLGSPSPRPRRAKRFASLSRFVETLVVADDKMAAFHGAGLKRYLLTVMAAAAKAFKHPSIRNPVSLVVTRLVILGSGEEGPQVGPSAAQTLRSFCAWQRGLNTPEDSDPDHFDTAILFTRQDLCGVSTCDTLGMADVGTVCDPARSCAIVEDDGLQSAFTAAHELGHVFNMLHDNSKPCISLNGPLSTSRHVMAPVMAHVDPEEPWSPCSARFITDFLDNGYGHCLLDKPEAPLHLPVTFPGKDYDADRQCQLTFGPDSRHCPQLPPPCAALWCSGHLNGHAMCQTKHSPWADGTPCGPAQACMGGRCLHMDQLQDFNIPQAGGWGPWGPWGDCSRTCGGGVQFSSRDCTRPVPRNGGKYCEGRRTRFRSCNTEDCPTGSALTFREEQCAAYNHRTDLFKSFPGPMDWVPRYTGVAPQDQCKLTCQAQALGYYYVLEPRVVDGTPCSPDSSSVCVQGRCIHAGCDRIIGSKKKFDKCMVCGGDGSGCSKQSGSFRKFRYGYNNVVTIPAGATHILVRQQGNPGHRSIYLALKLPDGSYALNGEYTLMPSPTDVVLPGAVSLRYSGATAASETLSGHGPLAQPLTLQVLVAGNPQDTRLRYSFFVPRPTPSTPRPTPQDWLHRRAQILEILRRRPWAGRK

[3] = target: T3, A disintegrin and metalloproteinase with thrombospondin motifs 5 (Homo sapiens, UniProt Q9UNA0); assay: Inhibition of ADAMTS-5 (unknown origin)
T3 sequence (Q9UNA0 whole entry): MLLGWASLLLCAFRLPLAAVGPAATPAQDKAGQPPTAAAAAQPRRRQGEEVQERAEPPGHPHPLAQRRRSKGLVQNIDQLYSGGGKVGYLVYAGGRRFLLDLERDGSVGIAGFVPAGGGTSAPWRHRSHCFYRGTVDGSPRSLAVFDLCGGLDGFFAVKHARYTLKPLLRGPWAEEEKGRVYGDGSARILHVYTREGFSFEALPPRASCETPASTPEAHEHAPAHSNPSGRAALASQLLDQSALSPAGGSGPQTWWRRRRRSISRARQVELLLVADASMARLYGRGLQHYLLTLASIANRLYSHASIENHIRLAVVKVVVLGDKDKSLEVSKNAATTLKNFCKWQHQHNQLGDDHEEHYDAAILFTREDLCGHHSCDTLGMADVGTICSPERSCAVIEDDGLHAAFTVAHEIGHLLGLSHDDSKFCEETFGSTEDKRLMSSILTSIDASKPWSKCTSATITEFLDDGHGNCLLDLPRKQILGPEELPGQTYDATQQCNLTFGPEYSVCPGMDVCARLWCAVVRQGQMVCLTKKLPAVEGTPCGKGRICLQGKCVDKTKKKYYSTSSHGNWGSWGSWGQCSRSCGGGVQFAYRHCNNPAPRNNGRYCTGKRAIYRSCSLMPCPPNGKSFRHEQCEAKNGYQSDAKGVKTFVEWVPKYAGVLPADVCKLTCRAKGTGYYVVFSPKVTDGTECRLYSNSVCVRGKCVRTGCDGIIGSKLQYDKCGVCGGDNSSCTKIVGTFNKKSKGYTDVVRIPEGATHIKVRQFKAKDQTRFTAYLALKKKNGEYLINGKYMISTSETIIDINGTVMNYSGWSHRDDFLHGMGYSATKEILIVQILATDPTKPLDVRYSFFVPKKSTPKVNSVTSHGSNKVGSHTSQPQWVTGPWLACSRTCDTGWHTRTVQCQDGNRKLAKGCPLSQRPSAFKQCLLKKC

[4] = target: T4, A disintegrin and metalloproteinase with thrombospondin motifs 4 (Bos taurus) (UniProt Q9TT93); conditions: 30 uM
T4 sequence (whole entry): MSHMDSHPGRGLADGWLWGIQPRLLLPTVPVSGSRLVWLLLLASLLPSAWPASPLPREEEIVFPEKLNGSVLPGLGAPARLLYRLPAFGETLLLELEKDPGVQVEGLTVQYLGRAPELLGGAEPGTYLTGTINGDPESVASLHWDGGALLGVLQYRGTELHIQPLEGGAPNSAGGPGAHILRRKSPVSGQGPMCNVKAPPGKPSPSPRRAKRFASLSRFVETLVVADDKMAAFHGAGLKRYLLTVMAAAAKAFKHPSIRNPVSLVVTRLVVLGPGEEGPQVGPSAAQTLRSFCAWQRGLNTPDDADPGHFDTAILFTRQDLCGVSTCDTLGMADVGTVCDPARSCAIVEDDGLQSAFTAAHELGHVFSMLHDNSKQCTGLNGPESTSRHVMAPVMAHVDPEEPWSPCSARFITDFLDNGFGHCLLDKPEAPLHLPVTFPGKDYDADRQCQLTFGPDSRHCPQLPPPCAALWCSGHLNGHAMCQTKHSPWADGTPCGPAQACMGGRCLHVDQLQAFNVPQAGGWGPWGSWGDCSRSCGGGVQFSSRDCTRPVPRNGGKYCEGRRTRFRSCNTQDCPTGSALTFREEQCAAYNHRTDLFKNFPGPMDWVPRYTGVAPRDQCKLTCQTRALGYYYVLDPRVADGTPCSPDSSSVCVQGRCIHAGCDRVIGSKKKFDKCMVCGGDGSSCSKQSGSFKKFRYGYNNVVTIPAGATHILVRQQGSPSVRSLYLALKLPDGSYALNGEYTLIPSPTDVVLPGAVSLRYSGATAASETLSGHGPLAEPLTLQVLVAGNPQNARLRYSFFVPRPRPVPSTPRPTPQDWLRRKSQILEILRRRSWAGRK
Description: Ex vivo inhibition of ADAMTS-4-mediated aggrecan degradation in IL-1-stimulated bovine cartilage explant at 30 uM

inhibition [1]: 91%
pIC50 [2]: 6.00
pIC50 [3]: 6.38
inhibition [4]: 91%
Structure (SMILES): O=C(NO)C1(S(=O)(=O)c2ccc(Oc3ccc(Cl)cc3)cc2)CCN(Cc2ccccc2)CC1
